Experimental data from PubChem BioAssay (NCI).
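1) Cells in 96-well plates. 2) Compound, 48 h, 5 concentrations. 3) Linear interpolation between surrounding doses. 4) Unreached endpoint = highest concentration. Here, GI50 denotes the concentration required for 50% inhibition of growth. TGI: concentration producing complete growth inhibition.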

Legend:
Experiment in all cases: NCI-60 cell line screen, 48 h
K-562 leukemia = test system: K-562 leukemia
KM12 colon = test system: KM12 colon
MOLT-4 leukemia = test system: MOLT-4 leukemia
SK-MEL-28 melanoma = test system: SK-MEL-28 melanoma
A498 renal = test system: A498 renal
IGROV1 ovarian = test system: IGROV1 ovarian
M14 melanoma = test system: M14 melanoma
TK-10 renal = test system: TK-10 renal
OVCAR-5 ovarian = test system: OVCAR-5 ovarian
COLO 205 colon = test system: COLO 205 colon
NCI-H460 lung = test system: NCI-H460 lung
HOP-92 NSCLC = test system: HOP-92 NSCLC
HCT-116 colon = test system: HCT-116 colon
RXF 393 renal = test system: RXF 393 renal
SNB-19 CNS = test system: SNB-19 CNS
UACC-62 melanoma = test system: UACC-62 melanoma
OVCAR-3 ovarian = test system: OVCAR-3 ovarian
ACHN renal = test system: ACHN renal
SNB-75 CNS = test system: SNB-75 CNS
HS 578T breast = test system: HS 578T breast
SF-295 CNS = test system: SF-295 CNS
SR leukemia = test system: SR leukemia
PC-3 prostate = test system: PC-3 prostate
SF-268 CNS = test system: SF-268 CNS
SN12C renal = test system: SN12C renal
SK-MEL-5 melanoma = test system: SK-MEL-5 melanoma
NCI/ADR-RES ovarian = test system: NCI/ADR-RES ovarian
OVCAR-8 ovarian = test system: OVCAR-8 ovarian
T-47D breast = test system: T-47D breast
MALME-3M melanoma = test system: MALME-3M melanoma
RPMI-8226 leukemia = test system: RPMI-8226 leukemia
LOX IMVI melanoma = test system: LOX IMVI melanoma
A549 NSCLC = test system: A549 NSCLC
MDA-MB-435 = test system: MDA-MB-435
EKVX NSCLC = test system: EKVX NSCLC
CCRF-CEM leukemia = test system: CCRF-CEM leukemia
SF-539 CNS = test system: SF-539 CNS
NCI-H522 lung = test system: NCI-H522 lung
NCI-H226 lung = test system: NCI-H226 lung
SW-620 colon = test system: SW-620 colon
UACC-257 melanoma = test system: UACC-257 melanoma
786-0 renal = test system: 786-0 renal
HL-60(TB) leukemia = test system: HL-60(TB) leukemia
HT29 colon = test system: HT29 colon
CAKI-1 renal = test system: CAKI-1 renal
UO-31 renal = test system: UO-31 renal
DU-145 prostate = test system: DU-145 prostate
BT-549 breast = test system: BT-549 breast
U251 CNS = test system: U251 CNS
HOP-62 NSCLC = test system: HOP-62 NSCLC
MDA-MB-231 breast = test system: MDA-MB-231 breast
HCC-2998 colon = test system: HCC-2998 colon
NCI-H23 lung = test system: NCI-H23 lung
HCT-15 colon = test system: HCT-15 colon
MCF7 breast = test system: MCF7 breast
OVCAR-4 ovarian = test system: OVCAR-4 ovarian

Compound Cc1cc(S(=O)(=O)Nc2nc3ccccc3c(=O)n2Cc2ccco2)c(S)cc1Cl has a GI50 (K-562 leukemia) of 49.7 µM, a TGI (K-562 leukemia) of over 100 µM and a GI50 (KM12 colon) of 30.1 µM. The TGI (KM12 colon) was over 100 µM, the GI50 (MOLT-4 leukemia) was 18.6 µM and the TGI (MOLT-4 leukemia) was over 100 µM. It also gave a GI50 (SK-MEL-28 melanoma) of 34.8 µM, a TGI (SK-MEL-28 melanoma) of over 100 µM and a GI50 (A498 renal) of 33.1 µM. For the same compound, the TGI (A498 renal) was over 100 µM, the GI50 (IGROV1 ovarian) was 36.9 µM and the TGI (IGROV1 ovarian) was over 100 µM. For the same compound, the GI50 (M14 melanoma) was 69.9 µM, the TGI (M14 melanoma) was over 100 µM and the GI50 (TK-10 renal) was 35 µM. The TGI (TK-10 renal) was over 100 µM, the GI50 (OVCAR-5 ovarian) was 60.4 µM and the TGI (OVCAR-5 ovarian) was over 100 µM. It also gave a GI50 (COLO 205 colon) of over 100 µM, a TGI (COLO 205 colon) of over 100 µM and a GI50 (NCI-H460 lung) of 33.3 µM. For the same compound, the TGI (NCI-H460 lung) was over 100 µM, the GI50 (HOP-92 NSCLC) was over 100 µM and the TGI (HOP-92 NSCLC) was over 100 µM. For the same compound, the GI50 (HCT-116 colon) was 42.3 µM, the TGI (HCT-116 colon) was over 100 µM and the GI50 (RXF 393 renal) was 61.7 µM. For the same compound, the TGI (RXF 393 renal) was over 100 µM, the TGI (SNB-19 CNS) was over 100 µM and the GI50 (UACC-62 melanoma) was 36.4 µM. The TGI (UACC-62 melanoma) was over 100 µM, the GI50 (OVCAR-3 ovarian) was 30.5 µM and the TGI (OVCAR-3 ovarian) was over 100 µM. It also gave a GI50 (ACHN renal) of 49.8 µM, a TGI (ACHN renal) of over 100 µM and a GI50 (SNB-75 CNS) of 97 µM. For the same compound, the TGI (SNB-75 CNS) was over 100 µM, the GI50 (HS 578T breast) was 30.5 µM and the TGI (HS 578T breast) was over 100 µM. For the same compound, the GI50 (SF-295 CNS) was 31.8 µM, the TGI (SF-295 CNS) was over 100 µM and the GI50 (SR leukemia) was 19.5 µM. The TGI (SR leukemia) was 40.7 µM, the GI50 (PC-3 prostate) was 36.9 µM and the TGI (PC-3 prostate) was over 100 µM. For the same compound, the GI50 (SF-268 CNS) was 40.6 µM, the TGI (SF-268 CNS) was over 100 µM and the GI50 (SN12C renal) was 29.8 µM. The TGI (SN12C renal) was 88.8 µM, the GI50 (SK-MEL-5 melanoma) was 22.8 µM and the TGI (SK-MEL-5 melanoma) was over 100 µM. The GI50 (NCI/ADR-RES ovarian) was 54.8 µM, the TGI (NCI/ADR-RES ovarian) was over 100 µM and the GI50 (OVCAR-8 ovarian) was 57.7 µM. For the same compound, the TGI (OVCAR-8 ovarian) was over 100 µM, the GI50 (T-47D breast) was 15 µM and the TGI (T-47D breast) was 81.4 µM. For the same compound, the GI50 (MALME-3M melanoma) was 54.8 µM, the TGI (MALME-3M melanoma) was over 100 µM and the GI50 (RPMI-8226 leukemia) was 27 µM. The TGI (RPMI-8226 leukemia) was over 100 µM, the GI50 (LOX IMVI melanoma) was 26.1 µM and the TGI (LOX IMVI melanoma) was 59.3 µM. It also gave a GI50 (A549 NSCLC) of 48 µM, a TGI (A549 NSCLC) of over 100 µM and a GI50 (MDA-MB-435) of 41.2 µM. The TGI (MDA-MB-435) was over 100 µM, the GI50 (EKVX NSCLC) was 22.8 µM and the TGI (EKVX NSCLC) was 70.6 µM. For the same compound, the GI50 (CCRF-CEM leukemia) was 29.2 µM, the TGI (CCRF-CEM leukemia) was over 100 µM and the GI50 (SF-539 CNS) was 31.5 µM. The TGI (SF-539 CNS) was 84.5 µM, the GI50 (NCI-H522 lung) was 37.4 µM and the TGI (NCI-H522 lung) was over 100 µM. It also gave a GI50 (NCI-H226 lung) of 83.6 µM, a TGI (NCI-H226 lung) of over 100 µM and a GI50 (SW-620 colon) of 30.7 µM. The TGI (SW-620 colon) was over 100 µM, the GI50 (UACC-257 melanoma) was over 100 µM and the TGI (UACC-257 melanoma) was over 100 µM. The GI50 (786-0 renal) was 36.1 µM, the TGI (786-0 renal) was over 100 µM and the GI50 (HL-60(TB) leukemia) was 74.3 µM. It also gave a TGI (HL-60(TB) leukemia) of over 100 µM, a GI50 (HT29 colon) of 46.2 µM and a TGI (HT29 colon) of over 100 µM. The GI50 (CAKI-1 renal) was 44.1 µM, the TGI (CAKI-1 renal) was over 100 µM and the GI50 (UO-31 renal) was 49.5 µM. For the same compound, the TGI (UO-31 renal) was over 100 µM, the GI50 (DU-145 prostate) was 30.7 µM and the TGI (DU-145 prostate) was over 100 µM. It also gave a GI50 (BT-549 breast) of 15.7 µM, a TGI (BT-549 breast) of 51.9 µM and a GI50 (U251 CNS) of 45.8 µM. It also gave a TGI (U251 CNS) of over 100 µM, a GI50 (HOP-62 NSCLC) of 32.8 µM and a TGI (HOP-62 NSCLC) of 69.6 µM. The GI50 (MDA-MB-231 breast) was 38.5 µM, the TGI (MDA-MB-231 breast) was over 100 µM and the GI50 (HCC-2998 colon) was 38.6 µM. It also gave a TGI (HCC-2998 colon) of over 100 µM, a GI50 (NCI-H23 lung) of 46 µM and a TGI (NCI-H23 lung) of over 100 µM. For the same compound, the GI50 (HCT-15 colon) was 55 µM, the TGI (HCT-15 colon) was over 100 µM and the GI50 (MCF7 breast) was 41.5 µM. For the same compound, the TGI (MCF7 breast) was over 100 µM, the GI50 (OVCAR-4 ovarian) was 87.7 µM and the TGI (OVCAR-4 ovarian) was over 100 µM.
